{"source": "paper PMC6588435", "about": "(Cell chemical biology, 2019)", "key": {"Mtb Erdman (ATCC 35801)": {"system": "Mtb Erdman (ATCC 35801)", "test": "In vitro susceptibility testing", "format": "cell-based, Mycobacterium tuberculosis"}, "Mtb Erdman cells": {"system": "Mtb Erdman cells", "format": "cell-based, Mycobacterium tuberculosis"}, "Mtb DHFR [1]": {"target": "T1, Mtb DHFR (Mycobacterium tuberculosis, UniProt P9WNX1)", "T1 sequence (P9WNX1 whole entry)": "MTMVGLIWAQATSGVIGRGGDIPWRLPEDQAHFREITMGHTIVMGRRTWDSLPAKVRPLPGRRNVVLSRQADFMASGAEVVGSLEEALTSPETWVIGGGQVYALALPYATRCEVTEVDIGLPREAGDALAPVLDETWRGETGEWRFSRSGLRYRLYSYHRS", "test": "biochemical"}, "Mtb DHFR [2]": {"target": "T1, Mtb DHFR", "test": "biochemical", "remark": "listed apart in the source"}, "Mtb Rv2671": {"target": "Mtb Rv2671 (Mycobacterium tuberculosis, UniProt P71968)", "test": "Mtb Rv2671 enzyme inhibition assay", "format": "biochemical"}, "Mtb FDTS [3]": {"target": "T2, Mtb FDTS (Mycobacterium tuberculosis, UniProt P9WG57)", "T2 sequence (P9WG57 whole entry)": "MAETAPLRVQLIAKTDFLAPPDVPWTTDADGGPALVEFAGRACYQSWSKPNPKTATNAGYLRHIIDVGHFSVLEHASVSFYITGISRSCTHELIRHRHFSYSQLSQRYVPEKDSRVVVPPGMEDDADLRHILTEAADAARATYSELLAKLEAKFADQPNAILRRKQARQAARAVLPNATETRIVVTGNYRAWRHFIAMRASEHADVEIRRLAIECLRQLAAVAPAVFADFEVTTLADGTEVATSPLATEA", "test": "Mtb FDTS NADPH oxidation assay", "format": "biochemical"}, "Mtb FDTS [4]": {"target": "T2, Mtb FDTS", "test": "HPLC analysis of Mtb FDTS reaction", "format": "biochemical"}, "Mtb FDTS [5]": {"target": "T2, Mtb FDTS", "test": "Differential scanning calorimetry of Mtb FDTS", "settings": "DSC; control (FDTS, dUMP, FAD) 66.6 °C"}, "Mtb DHFR [6]": {"target": "T1, Mtb DHFR", "format": "binding", "settings": "DSC, with NADPH; control (Mtb DHFR+NADPH) 65 °C"}, "Mtb cells": {"system": "Mtb cells", "settings": "treatment of Mtb cells; ref Nixon et al. (2014); cited from earlier work"}, "[7]": {"settings": "read-out: Mtb Rv2671 Ki, 50 μM NADPH"}}, "note": "“And” between values parts separate entries of the source, which are not always exact repeats. Equal entries are not always repeated. Where two headings read alike, the source gives them in different places."}
{"compound": "CN(Cc1cnc2nc(N)nc(N)c2n1)c1ccc(C(=O)N[C@@H](CCC(=O)O)C(=O)O)cc1", "note": "[MTX, Methotrexate]", "values": [{"measurement": "MIC", "setting": "Mtb Erdman (ATCC 35801); Mycobacterium tuberculosis, ATCC35801|ERDMAN", "value": "> 100", "unit": "µg/mL"}]}
{"compound": "Nc1ccc(C(=O)O)c(O)c1", "note": "[PAS, para-aminosalicylic acid]", "values": [{"measurement": "MIC", "setting": "Mtb Erdman (ATCC 35801); Mycobacterium tuberculosis, ATCC35801|ERDMAN, read-out: MIC, WT Mtb", "value": 0.5, "unit": "µg/mL"}, {"measurement": "reduction of 14C incorporation to the FAME/MAME fraction", "setting": "Mtb Erdman cells; 0.36 μg/ml", "value": 52, "unit": "%"}, {"measurement": "effect on methoxymycolic acids", "setting": "Mtb Erdman cells; TLC of FAME/MAME", "value": "significant reduction"}]}
{"compound": "Nc1nc(=O)c2nc(CNc3ccc(C(=O)NC(CCC(=O)O)C(=O)O)c(O)c3)cnc2[nH]1", "note": "(centres unmarked) [PAS-M, 2-[(4-{[(2-amino-4-oxo-1,4-dihydropteridin-6-yl)methyl]amino}-2-hydroxyphenyl)formamido] pentanedioic acid]", "values": [{"measurement": "Ki", "setting": "Mtb DHFR [1]", "value": "750 ± 120", "unit": "nM"}, {"measurement": "koff", "setting": "Mtb DHFR [2]; read-out: Mtb DHFR koff", "value": 0.0107, "unit": "s⁻¹"}, {"measurement": "residence time", "setting": "Mtb DHFR [2]; read-out: Mtb DHFR tR (residence time)", "value": "1.5 ± 0.3", "unit": "min"}, {"measurement": "Ki", "setting": "Mtb Rv2671", "value": 27500, "unit": "nM"}, {"measurement": "IC50", "setting": "Mtb FDTS [3]", "value": "14400 ± 1500", "unit": "nM"}, {"measurement": "decrease in dTMP levels compared to control", "setting": "Mtb FDTS [4]", "value": "~ 2.5 fold"}, {"measurement": "Mtb FDTS Tm", "setting": "Mtb FDTS [5]", "value": 71.9, "unit": "°C"}]}
{"compound": "CCc1nc(N)nc(N)c1C#C[C@H](C)c1cc(-c2ccncc2)ccc1OC", "note": "[UCP1063]", "values": [{"measurement": "MIC", "setting": "Mtb Erdman (ATCC 35801)", "value": 2, "unit": "µg/mL"}, {"measurement": "Mtb DHFR Tm", "setting": "Mtb DHFR [6]", "value": "71 °C and 71 ± 2.7 °C"}, {"measurement": "Ki", "setting": "Mtb Rv2671; [7]", "value": "52 ± 6.2", "unit": "nM"}]}
{"compound": "CCc1nc(N)nc(N)c1C#C[C@@H](C)c1cc(-c2ccc(C(=O)O)cc2)ccc1OC", "note": "[UCP1164]", "values": [{"measurement": "MIC", "setting": "Mtb Erdman (ATCC 35801)", "value": 0.5, "unit": "µg/mL"}, {"measurement": "Ki", "setting": "Mtb Rv2671; [7]", "value": "120 ± 8.5", "unit": "nM"}]}
{"compound": "CC1(C)N=C(N)N=C(N)N1OCCCOc1cc(Cl)c(Cl)cc1Cl", "note": "[WR99210]", "values": [{"measurement": "decrease in the concentration of SAM", "setting": "Mtb cells", "value": 20, "unit": "fold"}]}
